Data on 1 compound can be found in patent US20240315283A1, “ISOFUCOSTEROL A KEY NUTRIENT FOR PHYTOSTEROL EATING ANIMALS SUCH AS POLLEN EATING AND ALGAE-EATING AND PLANKTON EATING ORGANISMS” (APIX BIOSCIENCES, priority 2021, published 2024).

Assay [1] has as its system adult worker honeybees (Apis mellifera) or adult worker bumblebees (Bombus terrestris). In words: Two-choice preference assay, diet with or without isofucosterol. The class given is in vivo. To be noted: choice of diet with or without isofucosterol, 5 days, FIG. 1. The method, then: One treatment diet contained the isofucosterol and the other contained no sterol. Newly emerged bees were removed from the brood frame and cohorts of 30 bees per replicate were housed in plastic rearing cages. In all experiments, 10 cohorts of ˜30 bees each were used for each treatment group. […] Consumption of each diet was measured every 24 h for 5 days. Preference index was calculated as (amount of treatment consumed−amount of control consumed)/(total amount of food consumed). In Example 1, cohorts of bees were given a choice of diet with or without isofucosterol.

Assay [2] has as its system Honeybees. In words: Brood production in APIDEA nuc colonies. The class given is in vivo, honeybee. To be noted: pollen-free diet with isofucosterol vs isofucosterol-free diet, increasing concentration. The method, then: Honeybees: Fully functional insulated styrofoam APIDEA nucs comprised 5 mini frames populated with adult workers and 1 mated laying queen bee were populated with 300-400 ml of young adult workers (˜N<1,000 bees of mixed ages).
Each treatment was tested with 3-6 colonies; each colony was fed with a 60-100 g patty (solid diet) on the top feeder fitted with a mesh floor. Diet was fed on the first day and again on day 6; the quantity consumed was measured on day 6 and day 15. If no larvae or eggs/queen are observed by day 6 then the experiment is terminated. The number of capped brood cells was counted on day 15. The number of bee seams was estimated during each inspection. Sugar syrup (34%) and water was provided in feeders inside the tent to prevent carbohydrate starvation and to stimulate foraging activity.
In Example 3, bees were fed with a diet containing 10-18% protein, 6% fat, 1% vitamins/minerals and >75% carbohydrates.
As the concentration of isofucosterol increased, the amount of brood produced in each colony increased (N>3 colonies/treatment). The pupae, and the number of new adults was counted over the entire 10-week period.

Assay [3] has as its system Honeybees. In words: Long term Apidea experiment with bees fed a multiplicity of sterols. The format is in vivo, honeybee. Conditions: diet with isofucosterol and multiplicity of sterols; cycles of 21 days. The method, then:
Honeybees: Fully functional insulated styrofoam Apidea™ nucs comprised 3-5 mini frames populated with adult workers and 1 mated laying queen bee were populated with 300-400 ml of young adult workers (˜N<1,000 bees of mixed ages).
Each treatment was tested with 3-6 colonies, each colony was fed ad libitum with the solid diet on the top feeder fitted with a mesh floor, and the quantity consumed was assessed at every feeding. The number of capped brood cells was assessed every 12 days. The number of bee seams was recorded during each inspection. If the colony reaches maximal size for the Apidea box, a super is added. Sugar syrup (34%) and water was provided in feeders inside the tent to prevent carbohydrate starvation and to stimulate foraging activity.
In Example 4A, bees were fed with a diet containing 15-30% protein, 4-12% fat, 1% vitamins/minerals and >40% carbohydrates (Diet 1). […]
FIG. 4—results of experiment 4A: Mean area of sealed brood (cm2) assessed every 12 days over a 15-week period. […]

A further assay has as its system adult worker honeybees. Put plainly: Survival of cohorts of bees on diets containing isofucosterol. The format is in vivo, honeybee. To be noted: pollen-free diet with isofucosterol vs isofucosterol-free diet. On the procedure: Newly emerged adult worker honeybees fed with a diet treatment and ad libitum access to water. The treatment diet contained the isofucosterol. Newly emerged bees were removed from the brood frame and cohorts of 30 bees per replicate were housed in plastic rearing cages. In all experiments, 10 cohorts of ˜30 bees each were used for each treatment group. In all diet's carbohydrate was maintained at 60% using sucrose and fat was maintained at 8%. Consumption of each diet was measured every day over the course of the experiment. The number of bees alive in the box was counted each day for 14 days.
Example 2 represents the survival of cohorts of bees confined to feed on diets containing specific concentrations of isofucosterol (0%, 0.5% and 1% weight of diet), as shown in FIG. 2.

The subject of the next assay is Black soldier flies. In words: Black soldier fly feeding experiments. The format is in vivo, Hermetia illucens. On the procedure: Adult survival and number of egg masses laid from a population fed with a pollen substitute diet (as specified in US2019/0090507 to Apix Biosciences) was measured daily using the methods of rearing described in Thinn and Kainoh 2022. JARQ 56 (2), 211-217 (2022). […] Black soldier fly (BSF) larvae were fed with a diet containing 22% protein, 4% fat as described in Hogsette 1992. J. Econ. Entomol. 85(6): 2291-2294 until ecclosion. Sterols were sourced as pure compounds added directly to diet to a total quantity of 0.1%. […] J. Entomol. 118: 297-306, 2021. […] Sterols were added to diet. Measurement of sterols in tissues was performed after saponification of BSF tissues using GC-MS as described in Boukid et al. 2022. Insects 12, 672.

`C/C=C(/CC[C@@H](C)[C@H]1CC[C@H]2[C@@H]3CC=C4C[C@@H](O)CC[C@]4(C)[C@H]3CC[C@]12C)C(C)C` [isofucosterol, Isofucosterol]: in assay [1], the “isofucosterol concentration in the diet that bees preferred to consume” value is on record as “at least 0.05%”. The bee brood production entry in the assay with Honeybees [2] is listed as “increased”; with Honeybees [2] (listed as Isofucosterol) it was “increases”. The “brood production / brood development supported” value in the assay with Honeybees [3] is recorded as “more than 4 cycles”. In addition, the “survival of worker bees” value with adult worker honeybees is on record as “increases”. The “egg laying and egg hatching performance and adult longevity” value in the assay on Black soldier flies (cultivated Black Soldier Fly or beetle adults fed diet containing isofucosterol) is “improves”. Moreover, the “performance of adult and larval BSF” value in the assay on Black soldier flies (isofucosterol delivered through a pollen-free diet) is recorded as “increases the performance”.
